Assay results from the supplement of paper PMC10307832.

Experiments:
Experiment in all cases: relative viability (nuclei count vs DMSO), 5 days (fraction); higher = more cells survive
[1] = compound: CC[C@@H](C)CNCC(=O)N1CCC2=C([C@@H]1COC3=CC=CC(=C3)C)C=CS2 [RU-SKI 43] + C[C@@H](Oc1cc(-c2cnn(C3CCNCC3)c2)cnc1N)c1c(Cl)ccc(F)c1Cl [Crizotinib] (partner 1 µM)
Summary of the method: (§1)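 Relative viability divides the nuclei count in treated wells by that in vehicle wells. Lung cancer cell lines were seeded in 1536-well plates, dosed by pin tool the next day, and fixed and stained after 5 days in one step with final 0.05% Triton X-100, 1% formaldehyde and 1 ug/ml Hoechst. Dosing was a single drug or a fixed anchor-drug dose plus five library-drug doses (not always all listed) in √10 steps, and values are medians of duplicate plates imaged at 4×.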

[2] = compound: CC[C@@H](C)CNCC(=O)N1CCC2=C([C@@H]1COC3=CC=CC(=C3)C)C=CS2 [RU-SKI 43] + C[C@]1(O)C[C@@H](c2nc(-c3ccc4ccc(-c5ccccc5)nc4c3)c3c(N)nccn32)C1 [Linsitinib] (partner 1 µM)
Summary of the method: as §1

[3] = compound: CC[C@@H](C)CNCC(=O)N1CCC2=C([C@@H]1COC3=CC=CC(=C3)C)C=CS2 [RU-SKI 43] + Nc1ncn([C@H]2C[C@H](O)[C@@H](CO)O2)c(=O)n1 [Decitabine] (partner 2 µM)
Summary of the method: as §1

[4] = compound: Cn1cc(-c2cnc3ccc4ccc(CS(=O)(=O)NCc5ccccn5)cc4c(=O)c3c2)cn1 [MK-8033] + CC(C)C[C@H](NC(=O)[C@H](Cc1ccccc1)NC(=O)c1cnccn1)B(O)O [Bortezomib] (partner 0.002 µM)
Summary of the method: as §1

Cell Line	relative viability ([1]; first compound 0.1 µM)	relative viability ([1]; first compound 0.3162 µM)	relative viability ([1]; first compound 1 µM)	relative viability ([1]; first compound 3.162 µM)	relative viability ([1]; first compound 10 µM)	relative viability ([2]; first compound 0.1 µM)	relative viability ([2]; first compound 0.3162 µM)	relative viability ([2]; first compound 1 µM)	relative viability ([2]; first compound 3.162 µM)	relative viability ([2]; first compound 10 µM)	relative viability ([3]; first compound 0.1 µM)	relative viability ([3]; first compound 0.3162 µM)	relative viability ([3]; first compound 1 µM)	relative viability ([3]; first compound 3.162 µM)	relative viability ([3]; first compound 10 µM)	relative viability ([4]; first compound 0.02 µM)	relative viability ([4]; first compound 0.06325 µM)	relative viability ([4]; first compound 0.2 µM)	relative viability ([4]; first compound 0.6325 µM)	relative viability ([4]; first compound 2 µM)
NCI-H1993	0.839	0.882	0.84	0.945	0.758	0.745	0.732	0.661	0.721	0.762	0.547	0.578	0.517	1.1	0.643	0.498	0.804	0.794	0.816	0.853
NCI-H2009	1.07	1.06	1.06	1.03	0.905	1.2	1.23	1.24	1.21	1.16	0.374	0.332	0.364	0.376	0.283	1.03	1.09	0.954	0.95	0.984
NCI-H2023	0.623	0.685	0.602	0.58	0.428	0.597	0.748	0.661	0.675	0.697	0.211	0.254	0.22	0.246	0.237	1.06	0.89	0.852	0.96	0.778
NCI-H2085	0.881	0.709	0.805	0.783	0.761	0.929	0.875	1.01	0.917	0.772	0.509	0.497	0.572	0.603	0.509	0.956	0.941	0.98	1.08	0.963
NCI-H2087	0.837	1.12	0.915	0.783	0.733	1.04	1.08	0.95	0.853	1.02	0.324	0.283	0.281	0.247	0.238	0.877	0.77	0.828	0.687	0.829
NCI-H2126	1.01	1.24	1.06	1.06	1.01	0.683	0.698	0.717	0.762	0.702	0.591	0.574	0.523	0.615	0.554	1.17	1.11	1.01	1.06	1.07
NCI-H2347	0.745	0.568	0.778	0.67	0.735	1	1.19	1.07	0.94	1.01	0.604	0.542	0.651	0.617	0.636	1.1	0.999	0.846	1.03	1.08
NCI-H2405	0.863	0.933	0.811	0.852	0.807	0.866	0.941	0.732	0.857	0.808	0.704	0.778	0.681	0.808	0.688	1	0.961	0.932	0.771	1.03
NCI-H3122	0.256	0.257	0.249	0.287	0.244	0.992	1.05	1.09	1.12	1.08	0.365	0.478	0.469	0.413	0.391	1.08	1.01	0.982	0.999	0.941
PC-3 [JPC-3]	0.918	1.14	0.998	0.922	0.963	0.885	0.956	1.03	1.02	0.866	0.789	0.894	0.804	0.852	0.749	0.813	–	0.778	0.848	0.943
PC-14	0.827	0.891	0.92	0.804	0.749	0.962	1	1.05	1.07	0.939	0.248	0.219	0.225	0.218	0.203	0.898	0.742	0.816	0.809	0.772
RERF-LC-KJ	0.904	0.86	0.772	0.862	0.77	0.946	1.04	0.915	0.943	0.895	0.782	0.832	0.69	0.681	0.58	1.08	1.21	1.04	1.19	1.03
SK-LU-1	0.799	1.02	0.969	0.971	0.898	1.06	1.22	1.26	1.18	0.917	0.571	0.684	0.612	0.593	0.535	1.31	0.955	1.32	0.883	1.18
SW 1573	1	0.767	0.799	0.768	0.723	0.884	0.824	0.841	0.692	0.688	0.483	0.594	0.51	0.532	0.433	1.08	–	0.902	0.988	1.05
